From patent US20190225650A1, “PEPTIDOMIMETIC MACROCYCLES AND USE THEREOF IN REGULATING HIF1ALPHA” (AILERON THERAPEUTICS, INC., priority 2013, published 2019)
Bridge positions count the residues as written; N and C are the ends. Square brackets hold non-standard residues; d marks the D form. Peptide text beside a SMILES is read from it. S5 = C=CCCC[C@](C)(N)C(=O)O; Nle = CCCC[C@H](N)C(=O)O

How the values were obtained:
[1] = target: T1, flag-tagged HIF1α (AA 786-826) / His6-tagged p300 (AA 323-423) complex (Homo sapiens, UniProt Q09472); test: HIF1α p300 displacement assay (TR FRET, +CHAPS); assay type: binding; conditions: read-out: IC50 (nM) (HIF1α_p300 Displacement + CHAPS)
T1 construct: His6-tagged p300 (AA 323-423); made in house; host or cells: E. coli (pETDuet vector)
Method in brief: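 The co-expressed flag-HIF1α (786-826)/His6-p300 (323-423) complex, purified from E. coli with 0.1 mM ZnSO4, was used at 300 nM final with competitor peptides for 1 h at room temperature. Buffer was 150 mM NaCl, 20 mM HEPES pH 7.4, 7.5 mM CHAPS and 1 mM DTT. Anti-Flag-K (0.5 μM) and anti-His-D2 (4 nM) were then added for 2 h, and IC50s were fitted from the TR-FRET ratio.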

[2] = tested on: HRE-bla ME-180 cells; test: Reporter gene assay (HRE-bla ME-180 HIF reporter, GeneBLAzer); assay type: cell-based, human; conditions: for EC50: 24 hour normoxia
Method in brief: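 A FRET β-lactamase readout of HIF transcription was used. After compound treatment in 0.3% DMSO/media under normoxic conditions, 20 μl of 6× LiveBLAzer-FRET B/G (CCF4-AM) substrate was added. Plates sat 3 hr at room temperature in the dark and were read at 409 Ex/460Em and 409Ex/530Em on a Synergy 2. Inhibition was compared against DMSO vehicle controls, with chetomin as positive control.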

[3] = tested on: HRE-bla ME-180 cells; test: Cell proliferation assay (viability, MTT, 1% FBS); assay type: cell-based, human
Method in brief: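 ME-180 cells (2×10^4/well) in Opti-MEM with 1% FBS were pretreated 16 h under normoxia (21% O2), vehicle 0.5% DMSO final. Incubation then continued under normoxia or hypoxia (1% O2); viable cells quantified by MTT-type CellTiter 96 assay.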

| IC50 [1] [nM] | EC50 [2] [µM] | Compound | 18 h Avg % max inhibition at top conc (HIF Rptr-24 hrs normoxia) (μM) [2] | Viability 1% FBS AVG (MTT V3-24 hr Normoxia) (μM) [3] |
| --- | --- | --- | --- | --- |
| > 700 | ≤ 5 | CCCC[C@H](NC(=O)[C@H](Cc1ccccc1)NC(=O)[C@@H](NC(=O)[C@H](C)NC(=O)[C@H](CCC(N)=O)NC(=O)[C@H](CC(=O)O)NC(=O)[C@@H](NC(=O)[C@H](Cc1ccccc1)NC(C)=O)[C@@H](C)CC)C(C)C)C(=O)N[C@@]1(C)CCCC=CCCC[C@@](C)(C(=O)N[C@@H](CCCC)C(=O)N[C@@H](C)C(=O)N[C@@H](CC(C)C)C(=O)N[C@@H](CC(C)C)C(N)=O)NC(=O)[C@H]([C@@H](C)CC)NC(=O)[C@H](C(C)C)NC(=O)[C@H](CO)NC1=O [SP-252] (Ac-FIDQAVF[Nle][S5]SVI[S5][Nle]ALL-NH2; staple 9-13) | ++++ (≥50: ++++) | ++ (≤5 but <15: ++) |
| > 700 | ≤ 5 | CCCC[C@H](NC(=O)[C@H](Cc1ccccc1)NC(=O)[C@@H](NC(=O)[C@H](C)NC(=O)[C@H](CCC(N)=O)NC(=O)[C@H](CC(=O)O)NC(=O)[C@@H](NC(=O)[C@H](Cc1ccccc1)NC(C)=O)[C@@H](C)CC)C(C)C)C(=O)N[C@@]1(C)CCCC=CCCC[C@@](C)(C(=O)N[C@@H](CCCNC(=N)N)C(=O)N[C@@H](C)C(=O)N[C@@H](CC(C)C)C(=O)N[C@@H](CC(C)C)C(N)=O)NC(=O)[C@H]([C@@H](C)CC)NC(=O)[C@H](C(C)C)NC(=O)[C@H](CC(C)C)NC1=O [SP-256] (Ac-FIDQAVF[Nle][S5]LVI[S5]RALL-NH2; staple 9-13) | ++++ (≥50: ++++) | ++ (≤5 but <15: ++) |
| > 700 | 5 to 15 | CCCC[C@H](NC(=O)[C@H](Cc1ccccc1)NC(=O)[C@@H](NC(=O)[C@H](C)NC(=O)[C@H](CCC(N)=O)NC(=O)[C@H](CC(=O)O)NC(=O)[C@@H](NC(=O)[C@H](Cc1ccccc1)NC(C)=O)[C@@H](C)CC)C(C)C)C(=O)N[C@@]1(C)CCCC=CCCC[C@@](C)(C(=O)N[C@@H](CO)C(=O)N[C@@H](C)C(=O)N[C@@H](CC(C)C)C(=O)N[C@@H](CC(C)C)C(N)=O)NC(=O)[C@H]([C@@H](C)CC)NC(=O)[C@H](C(C)C)NC(=O)[C@H](CC(C)C)NC1=O [SP-257] (Ac-FIDQAVF[Nle][S5]LVI[S5]SALL-NH2; staple 9-13) | ++++ (≥50: ++++) | ++ (≤5 but <15: ++) |
| > 700 | 5 to 15 | CCCC[C@H](NC(=O)[C@H](Cc1ccccc1)NC(=O)[C@@H](NC(=O)[C@H](C)NC(=O)[C@H](CCC(N)=O)NC(=O)[C@H](CC(=O)O)NC(=O)[C@@H](NC(=O)[C@H](Cc1ccccc1)NC(C)=O)[C@@H](C)CC)C(C)C)C(=O)N[C@@]1(C)CCCC=CCCC[C@@](C)(C(=O)N[C@@H](Cc2c[nH]cn2)C(=O)N[C@@H](C)C(=O)N[C@@H](CC(C)C)C(=O)N[C@@H](CC(C)C)C(N)=O)NC(=O)[C@H]([C@@H](C)CC)NC(=O)[C@H](C(C)C)NC(=O)[C@H](CC(C)C)NC1=O [SP-258] (Ac-FIDQAVF[Nle][S5]LVI[S5]HALL-NH2; staple 9-13) | +++ (≤25 but <50: +++) | ++ (≤5 but <15: ++) |

More lines, now with the values behind:

| Compound | IC50 [1] [nM] | EC50 [2] [µM] | 18 h Avg % max inhibition at top conc (HIF Rptr-24 hrs normoxia) (μM) [2] | Viability 1% FBS AVG (MTT V3-24 hr Normoxia) (μM) [3] |
| --- | --- | --- | --- | --- |
| CCCC[C@H](NC(=O)[C@H](Cc1ccccc1)NC(=O)[C@@H](NC(=O)[C@H](CCC(=O)O)NC(=O)[C@H](CCC(=O)O)NC(=O)[C@H](CC(=O)O)NC(=O)[C@@H](NC(C)=O)[C@@H](C)CC)C(C)C)C(=O)N[C@@]1(C)CCCC=CCCC[C@@](C)(C(=O)N[C@@H](CCCC)C(=O)N[C@@H](C)C(=O)N[C@@H](CC(C)C)C(=O)N[C@@H](CC(C)C)C(N)=O)NC(=O)[C@H]([C@@H](C)CC)NC(=O)[C@H](C(C)C)NC(=O)[C@H](CC(C)C)NC1=O [SP-243] (Ac-IDEEVF[Nle][S5]LVI[S5][Nle]ALL-NH2; staple 8-12) | 400 to 700 | 15 to 30 | ++++ (≥50: ++++) | ++++ (≥30: ++++) |
| CCCC[C@H](NC(=O)[C@H](Cc1ccccc1)NC(=O)[C@@H](NC(=O)[C@H](CCC(=O)O)NC(=O)[C@H](CCC(=O)O)NC(=O)[C@H](CC(=O)O)NC(C)=O)C(C)C)C(=O)N[C@@]1(C)CCCC=CCCC[C@@](C)(C(=O)N[C@@H](CCCC)C(=O)N[C@@H](C)C(=O)N[C@@H](CC(C)C)C(=O)N[C@@H](CC(C)C)C(N)=O)NC(=O)[C@H]([C@@H](C)CC)NC(=O)[C@H](C(C)C)NC(=O)[C@H](CC(C)C)NC1=O [SP-244] (Ac-DEEVF[Nle][S5]LVI[S5][Nle]ALL-NH2; staple 7-11) | > 700 | ≤ 5 | ++++ (≥50: ++++) | ++++ (≥30: ++++) |
| CCCC[C@H](NC(=O)[C@]1(C)CCCC=CCCC[C@](C)(NC(=O)[C@H](C)NC(=O)[C@H](Cc2ccccc2)NC(=O)[C@@H](NC(=O)[C@H](CCC(=O)O)NC(=O)[C@H](CCC(=O)O)NC(=O)[C@H](CC(=O)O)NC(=O)[C@@H](NC(=O)[C@H](Cc2ccccc2)NC(C)=O)[C@@H](C)CC)C(C)C)C(=O)N[C@@H](CC(C)C)C(=O)N[C@@H](C(C)C)C(=O)N[C@@H]([C@@H](C)CC)C(=O)N1)C(=O)N[C@@H](C)C(=O)N[C@@H](CC(C)C)C(=O)N[C@@H](CC(C)C)C(N)=O [SP-246] (Ac-FIDEEVFA[S5]LVI[S5][Nle]ALL-NH2; staple 9-13) | > 700 | > 30 | + (<10: +) | ++++ (≥30: ++++) |
| CCCC[C@H](NC(=O)[C@H](Cc1ccccc1)NC(=O)[C@@H](NC(=O)[C@H](CCC(=O)O)NC(=O)[C@H](CCC(=O)O)NC(=O)[C@H](CC(=O)O)NC(=O)[C@@H](NC(=O)[C@H](Cc1ccccc1)NC(C)=O)[C@@H](C)CC)C(C)C)C(=O)N[C@@]1(C)CCCC=CCCC[C@@](C)(C(=O)N[C@@H](C)C(=O)N[C@@H](C)C(=O)N[C@@H](CC(C)C)C(=O)N[C@@H](CC(C)C)C(N)=O)NC(=O)[C@H]([C@@H](C)CC)NC(=O)[C@H](C(C)C)NC(=O)[C@H](CC(C)C)NC1=O [SP-247] (Ac-FIDEEVF[Nle][S5]LVI[S5]AALL-NH2; staple 9-13) | 400 to 700 | 15 to 30 | +++ (≤25 but <50: +++) | ++++ (≥30: ++++) |
| CCCC[C@H](NC(=O)[C@H](Cc1ccccc1)NC(=O)[C@@H](NC(=O)[C@H](CCC(N)=O)NC(=O)[C@H](CCC(N)=O)NC(=O)[C@H](CC(N)=O)NC(=O)[C@@H](NC(=O)[C@H](Cc1ccccc1)NC(C)=O)[C@@H](C)CC)C(C)C)C(=O)N[C@@]1(C)CCCC=CCCC[C@@](C)(C(=O)N[C@@H](CCCC)C(=O)N[C@@H](C)C(=O)N[C@@H](CC(C)C)C(=O)N[C@@H](CC(C)C)C(N)=O)NC(=O)[C@H]([C@@H](C)CC)NC(=O)[C@H](C(C)C)NC(=O)[C@H](CC(C)C)NC1=O [SP-248] (Ac-FINQQVF[Nle][S5]LVI[S5][Nle]ALL-NH2; staple 9-13) | > 700 | > 30 | +++ (≤25 but <50: +++) | ++++ (≥30: ++++) |
| CCCC[C@H](NC(=O)[C@H](Cc1ccccc1)NC(=O)[C@@H](NC(=O)[C@H](C)NC(=O)[C@H](CCC(=O)O)NC(=O)[C@H](CC(=O)O)NC(=O)[C@@H](NC(=O)[C@H](Cc1ccccc1)NC(C)=O)[C@@H](C)CC)C(C)C)C(=O)N[C@@]1(C)CCCC=CCCC[C@@](C)(C(=O)N[C@@H](CCCC)C(=O)N[C@@H](C)C(=O)N[C@@H](CC(C)C)C(=O)N[C@@H](CC(C)C)C(N)=O)NC(=O)[C@H]([C@@H](C)CC)NC(=O)[C@H](C(C)C)NC(=O)[C@H](CC(C)C)NC1=O [SP-249] (Ac-FIDEAVF[Nle][S5]LVI[S5][Nle]ALL-NH2; staple 9-13) | > 700 | > 30 | + (<10: +) | ++++ (≥30: ++++) |
| CCCC[C@H](NC(=O)[C@H](Cc1ccccc1)NC(=O)[C@@H](NC(=O)[C@H](C)NC(=O)[C@H](CCC(N)=O)NC(=O)[C@H](CC(=O)O)NC(=O)[C@@H](NC(=O)[C@H](Cc1ccccc1)NC(C)=O)[C@@H](C)CC)C(C)C)C(=O)N[C@@]1(C)CCCC=CCCC[C@@](C)(C(=O)N[C@@H](CCCC)C(=O)N[C@@H](C)C(=O)N[C@@H](CC(C)C)C(=O)N[C@@H](CC(C)C)C(N)=O)NC(=O)[C@H]([C@@H](C)CC)NC(=O)[C@H](C(C)C)NC(=O)[C@H](CC(N)=O)NC1=O [SP-251] (Ac-FIDQAVF[Nle][S5]NVI[S5][Nle]ALL-NH2; staple 9-13) | > 700 | ≤ 5 | ++++ (≥50: ++++) | + (<5: +) |
